Experimental data taken from patent US20250002597A1, “METHOD FOR OPTIMIZING DRUG SELECTION” (priority 2023, published 2025).

Test system: T-lymphocytes
Assay: Lymphocyte toxicity assay (LTA)
Format: cell-based, human
Conditions: for Viability %: post-mastectomy
Source text: The present invention is particularly effective in determining the efficacy of the drug alone by measuring the lymphocyte toxicity assay and then combining the prescribed drug with various anabolic steroidal compounds.
Exemplifying the present invention is Table 2 below which sets forth a lymphocyte toxicity assay for a post-mastectomy treatment for reducing pain by measuring the efficacy of combining a known drug, Inflectra, with a steroidal compound which is an anti-tumor necrosis alpha inhibitor as the base.

[1] = single therapeutic, patient blood cells, untreated cell control = 100%

Compound: C[C@]12CC[C@H]3[C@@H](CCC4=CC(=O)CC[C@@H]43)[C@@H]1CC[C@@H]2O [Nandrolone]
- Viability % [1]: 158%

Compound: C[C@]12COC(=O)C[C@@H]1CC[C@@H]1[C@@H]2CC[C@@]2(C)[C@H]1CC[C@]2(C)O [Oxandrolone]
- Viability % [1]: 117%

Compound: C[C@]12Cc3c[nH]nc3C[C@@H]1CC[C@@H]1[C@@H]2CC[C@@]2(C)[C@H]1CC[C@]2(C)O [Stanozolol]
- Toxicity to the cells (interpretation in words) (patient blood cells exposed to the therapeutics): The only medication that was toxic to the cell was Stanozolol. However, the combination of Stanozolol
- Toxicity [1]: 14%

Compound: C[C@]12CC[C@H]3[C@@H](CCC4=CC(=O)CC[C@@]43C)[C@@H]1CC[C@@H]2O [Testosterone]
- Viability % [1]: 150%

Compound: INFLECTRA: known drug; anti-tumor necrosis alpha inhibitor
- Viability % [1]: 160%
